One data set concerns CD-1 mice. The note with it: 150 mg/kg single dose one hour before formalin; vs non-treated animals; 10 to 35 minutes after formalin (chronic phase); p<0.05 (FIG. 2).
In the next data set the test system is Sprague-Dawley (SD) rats. The note with it: rats day 15 post-CCI operation, s.c. 150 mg/kg, vs vehicle (FIG. 3).
Another data set relates to Male CD-1 mice. Kind of data set: Tail flick assay (radiated heat, acute pain) in mice.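 As to all read-outs here: infrared heat aimed at the tail of restrained mice, time until tail flick recorded as mean of 2-3 readings, 4-8 animals per group, compared with vehicle-treated animals.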 The note with it: for size of analgesic effect, ranking among tested compounds: Table 1.

Experimental for Male CD-1 mice: The analgesic effect of branched-chain fatty acids (BFAs) and their DP-BFAs derivatives was tested by using the tail flick assay in mice.
This model uses radiated infrared (IR) heat source that is directed to the tail of a restrained mouse. The threshold of tolerance for heat is indicated by a time-meter, which is stopped instantaneously when the tail flicks. This time is defined as ‘withdrawal latency’.
Male CD-1 mice weighing around 25-30 grams (4-8 animals per each dose of the tested compound) were used. The animals were put in clear plastic cages above an IR source (7371-Plantar™ Analgesia Instrument, UGO Basile), where the IR generator is placed directly underneath the tail of the mouse and the light beam is focused on the proximal third of the tail.
The withdrawal latency, namely the time interval from the starting of the infrared radiation until the animal feels pain and flicks its tail is determined. The initial withdrawal latency for each animal was measured at t=0 and was determined as its baseline threshold.
In order to determine the analgesic effect of a tested drug, the drug (10 to 200 mg/kg body weight) was administered to mice either orally (p.o.) or by intraperitoneal (i.p.) or subcutaneous (s.c.) injection. Withdrawal latency was determined at different time points post-administration of the drug as indicated. Each reading was performed 2-3 times and the mean-value was calculated. […] The withdrawal latency at each time point post injection is the average of 4-8 animals per group. […] Paired T-test was used to assess significance in comparison to the baseline value (t=0). Morphine was used as a positive control (2 animals per dose).
Experimental for Sprague-Dawley (SD) rats: Male, Sprague-Dawley (SD) rats, weighing around 200-250 grams, were anesthetized by i.p. injection of ketamine (50 mg/kg) and xylazine (10 mg/kg). The common sciatic nerve was exposed at the middle of the thigh of the hind right foot. Four ligatures were tied loosely around the nerve with a spacing of about 1 mm between them. The incision was closed by suturing the inner layers of the muscles with chromic gut suture, and the outer skin with silk suture. Five to seven days later the nociceptive threshold can be evaluated by quantifying sensitivity of the foot to mechanical stimuli or cold temperatures to assess allodynia.
The mechanical sensitivity of the animal foot is measured using the von Frey test [Kim and Chung (1992) Pain 50: 355-63]. An automated von Frey test was employed, in which a von Frey filament is applied to the plantar surface of the animal foot and the filament is pushed automatically at a preset rate of force/time increments into the plantar. Each measurement was repeated 2-3 times in each epsilateral and contralateral foot of the tested animals. The time lapsed from applying of pressure until withdrawal of the foot from the innocuous stimulus was measured in the treated animals and compared to the baseline values obtained for each animal prior to treatment.
As a control served CCI-operated animals injected with vehicle only.

Regarding `CCCCCCCCCCCCCCCCCCC(CCC)C(=O)O` (centres unmarked) [M(3,18), 2-Propyleicosanoic acid], the melting point lay in the range of 55.6 to 57.4 °C.
For 8-Pentadecanyl phosphocholine, the “time the animal spent licking its paw” value with CD-1 mice is listed as “significant less time licking their paw”. The “withdrawal threshold (mechanical allodynia, von Frey)” value with Sprague-Dawley (SD) rats was “increased withdrawal threshold”. Further, the “Withdrawal latency (% of vehicle)” value with Male CD-1 mice (I.P., 100 mg/kg, 15 min post-injection) is listed as 235% of vehicle; in the data set with Male CD-1 mice (I.P., 100 mg/kg, 45 min post-injection), 134% of vehicle; in the data set on Male CD-1 mice (I.P., 100 mg/kg, 75 min post-injection) it was 177% of vehicle; with Male CD-1 mice (I.P., 100 mg/kg, 105 min post-injection), 134% of vehicle; in the data set on Male CD-1 mice (I.P., 100 mg/kg, 135 min post-injection), 141% of vehicle; in the data set on Male CD-1 mice (I.P., 100 mg/kg, 285 min post-injection), 145% of vehicle. Besides, the “Withdrawal latency (% of vehicle)” value was 149% of vehicle in the data set with Male CD-1 mice (P.O., 50 mg/kg, 45 min post-administration); 157% of vehicle with Male CD-1 mice (P.O., 50 mg/kg, 75 min post-administration); 145% of vehicle in the data set on Male CD-1 mice (P.O., 50 mg/kg, 105 min post-administration); 137% of vehicle in the data set on Male CD-1 mice (P.O., 50 mg/kg, 135 min post-administration); 127% of vehicle in the data set on Male CD-1 mice (P.O., 50 mg/kg, 285 min post-administration); 124% of vehicle in the data set with Male CD-1 mice (P.O., 50 mg/kg, 345 min post-administration). The “Withdrawal latency (% of vehicle)” value in the data set on Male CD-1 mice (S.C., 25 mg/kg, 45 min post-injection) is 147% of vehicle; in the data set with Male CD-1 mice (S.C., 25 mg/kg, 75 min post-injection) it was 143% of vehicle; in the data set on Male CD-1 mice (S.C., 25 mg/kg, 105 min post-injection), 165% of vehicle; in the data set on Male CD-1 mice (S.C., 25 mg/kg, 135 min post-injection), 169% of vehicle; with Male CD-1 mice (S.C., 25 mg/kg, 285 min post-injection) it was 141% of vehicle; in the data set with Male CD-1 mice (S.C., 25 mg/kg, 345 min post-injection), 130% of vehicle. The “Withdrawal latency (% of vehicle)” value with Male CD-1 mice (S.C., 150 mg/kg, 45 min post-injection) is 194% of vehicle; in the data set on Male CD-1 mice (S.C., 150 mg/kg, 75 min post-injection), 217% of vehicle; in the data set on Male CD-1 mice (S.C., 150 mg/kg, 105 min post-injection), 186% of vehicle; in the data set with Male CD-1 mice (S.C., 150 mg/kg, 135 min post-injection) it was 175% of vehicle; in the data set with Male CD-1 mice (S.C., 150 mg/kg, 285 min post-injection), 184% of vehicle; in the data set on Male CD-1 mice (S.C., 150 mg/kg, 345 min post-injection), 175% of vehicle. For the same compound, the “increase in withdrawal latency” value in the data set with Male CD-1 mice (s.c., 150 mg/kg, 5-6 hours post injection) is recorded as “around 80%”. Also, the “potency ranking in the assay” value in the data set on Male CD-1 mice (tail flick) is reported as “most potent”. In the data set on Male CD-1 mice (tail flick), the “size of analgesic effect, ranking among tested compounds” value is on record as “largest analgesic effects”.
On to `CCCCCC(CCCCC)C(=O)O` [M(5,5), 2-Pentylheptanoic acid], for which the “Withdrawal latency (% of vehicle)” value with Male CD-1 mice (I.P., 200 mg/kg, 15 min post-injection) was 161% of vehicle; with Male CD-1 mice (I.P., 200 mg/kg, 45 min post-injection), 135% of vehicle; in the data set with Male CD-1 mice (I.P., 200 mg/kg, 75 min post-injection) it was 145% of vehicle; in the data set with Male CD-1 mice (I.P., 200 mg/kg, 105 min post-injection), 158% of vehicle. Also, the “size of analgesic effect, ranking among tested compounds” value with Male CD-1 mice (tail flick) is “largest analgesic effects”.

The term melting point denotes the temperature, or range, at which the solid turns liquid.

The record behind these values is patent publication US7582678B2, “Use of branched-chain fatty acids and derivatives thereof for the treatment of pain” (D-PHARM Limited, priority 1998, dated 2009).
